Test results from patent US11793782B2, “Therapeutic agents for neurodegenerative diseases” (priority 2017, dated 2023).

Tests used:
[1] = test system: AB variant of Tay-Sachs disease patient fibroblasts; test: Glycosphingolipid (GSL) levels by HPLC, AB variant fibroblasts; format: cell-based, human; conditions: 1 mM for 6 days
[2] = test system: NPC Chinese Hamster Ovary (CHO) cells; test: Relative lysosomal volume via LysoTracker, NPC CHO cells; format: cell-based; conditions: 1 mM, 72 hours, p<0.01 versus untreated NPC1-null
Excerpt: Relative lysosomal volume was quantified via LysoTracker.

MSA-P patients = test: Case studies, multiple system atrophy Parkinson type (MSA-P) patients; format: in vivo, human
Excerpt: Medication was stopped. […] The patient evaluated after one month on acetyl-DL-leucine. […] Episodes of mental confusion completely disappeared. The patient's cognitive structure seemed much clearer and straighter. […] The patient's spouse supported continuing the medication.

ALS patients = test: Case studies, amyotrophic lateral sclerosis (ALS) patients; format: in vivo, human
Excerpt: The results were documented by video.

[3] = test system: downbeat nystagmus patients; test: Case studies, downbeat nystagmus patients; format: in vivo, human
Excerpt: The patient was diagnosed with downbeat nystagmus: the patient was severely impaired by blurred vision (oscillopsia) due to the nystagmus, and experienced difficulties while reading and writing. The patient's visual acuity was: right 0.75, left 0.67, binocular 0.83, and the downbeat nystagmus was documented by video-oculography. […] The patient could partially suppress the nystagmus by visual fixation, as evaluated using a target center (dot presented in the center of a display for 30 seconds, FIG. 13A) and in complete darkness using goggles covered with special glasses for 45 seconds (FIG. 13B). The results (median of slow phase velocity, SPV) were as follows: Target Center-horizontal: −0.02°/s, vertical: 2.41°/s; Complete Darkness-horizontal: 0.05°/s, vertical: 3.27°/s (FIG. 13C).

[4] = MSA-P Patient 2, after 1 month of treatment
[5] = MSA-P Patient 2, after 1 month without treatment
[6] = MSA-P Patient 2, after 2 months without treatment
[7] = ALS Patient 1, after a further 20 days
[8] = downbeat nystagmus Patient 1, approximately 14 weeks after starting
[9] = downbeat nystagmus Patient 2, on treatment, Complete Darkness
[10] = downbeat nystagmus Patient 2, on treatment, Target Center

## CC(=O)NC(CC(C)C)C(=O)O (racemic) [acetyl-DL-leucine]
[1]
  GSL levels: trend towards decreased GSL levels
[2]
  Lysosomal volume (LysoTracker): significantly reduced lysosomal volume
MSA-P patients; MSA-P Patient 1, 5 g/day, after 3 weeks
  Clinical observation: no significant improvement of gait, reduction of falls or improved hypokinetic rigid-syndrome
MSA-P patients; MSA-P Patient 2, 5 g per day, after one month of treatment
  Clinical observation: subjective improvement of dizziness
MSA-P patients; [4]
  Coefficient of variation (temporal): 2.7
  Double stance: 25.6%
  Functional Gait Assessment: 24/30
  Max. speed: 214 cm/s
  Step cycle length: 120 cm
  Track width: 3.8 cm
  cadence: 109 steps/minute
  speed: 109 cm/s
MSA-P patients; [5]
  Coefficient of variation (temporal): 1.7
  Double stance: 22.5%
  Functional Gait Assessment: 25/30
  Max. speed: 196 cm/s
  Step cycle length: 126 cm
  Track width: 2.3 cm
  cadence: 109 steps/minute
  speed: 114 cm/s
MSA-P patients; [6]
  Coefficient of variation (temporal): 2.1
  Double stance: 26.7%
  Functional Gait Assessment: 22/30
  Max. speed: 177 cm/s
  Step cycle length: 107 cm
  Track width: 3.4 cm
  cadence: 106 steps/minute
  speed: 94 cm/s
MSA-P patients; MSA-P Patient 2, after two months without medication
  Symptoms without medication: worsening of general symptomatology
MSA-P patients; MSA-P Patient 3, 5 g per day, after one month
  Cognitive function (wife's report): significant improvement of cognitive function
MSA-P patients; MSA-P Patient 3, after one month
  Gait function: no improvement of gait function
ALS patients; ALS Patient 1
  Overall symptoms: improvement in symptoms
ALS patients; ALS Patient 1, 5 gram per day, after 15 days of treatment
  Speech (patient report): significant improvement of speech
ALS patients; ALS Patient 1, about 7 days plus 1-2 additional weeks off treatment
  Speech after stopping treatment: deterioration of speech
ALS patients; [7]
  Paresis of the right foot-dorsiflexors and foot drop: improved dramatically and were clinically hardly detectable
  Sleep (patient report): improvement in sleep
  Speech (patient report): further improvement of speech
ALS patients; ALS Patient 1, second resumption
  Symptomatology after resuming treatment: improved symptomatology, in particular speech
ALS patients; ALS Patient 2, 5 g per day, after approximately 2 months
  Clinical observation: progredient deterioration of the motor function of the left hand, but a discrete improvement of walking
ALS patients; ALS Patient 2, after approximately 2 months
  Swallowing functions: remained stable
ALS patients; ALS Patient 3, 5 g per day, after one month
  Symptomatology: did not report improvement of symptomatology
ALS patients; ALS Patient 4, 5 g per day, after about one month
  Clinical observation: subjective improvement of dysphagia and less hypersalivation
ALS patients; ALS Patient 4, 10 days after therapy was suspended
  Symptomatology after suspension: worsening of symptomatology
ALS patients; ALS Patient 4, about 8 weeks after resuming continuous treatment, before treatment 44/48
  ALS-FRS score: 43/48
[3]; downbeat nystagmus Patient 1
  Effect of temporary suspension of the medication: considerable deterioration
[3]; downbeat nystagmus Patient 1, 5 gram per day, after 10 days
  Patient-reported benefit: significant benefit
[3]; [8]
  Nystagmus (clinical examination): reduction of the nystagmus
  Posturography: reduction of postural sway
[3]; downbeat nystagmus Patient 1, approximately 14 weeks after starting, before 0.67
  Visual acuity, left: 1.0
[3]; downbeat nystagmus Patient 1, approximately 14 weeks after starting, before 0.75
  Visual acuity, right: 0.83
[3]; downbeat nystagmus Patient 1, approximately 14 weeks after starting, before 0.83
  Visual acuity, binocular: 1
[3]; downbeat nystagmus Patient 1, continued treatment at 5 gram per day
  Side-effects: no side-effects
[3]; downbeat nystagmus Patient 2, 5 g/day
  Clinical observation: improvement of gait
[3]; [9]
  Median of slow phase velocity (SPV), horizontal: 0.05 °/s
  Median of slow phase velocity (SPV), vertical: 3.27 °/s
[3]; [10]
  Median of slow phase velocity (SPV), horizontal: −0.02 °/s
  Median of slow phase velocity (SPV), vertical: 2.41 °/s
[3]; downbeat nystagmus Patient 2, on treatment, increase from 122
  Maximal gait velocity: 155 cm/s
